Measured values: patent EP4748844A1, “AZETIDINE COMPOUND AND MEDICAL USE THEREOF” (SHANGHAI INSTITUTE OF MATERIA MEDICA, CHINESE ACADEMY OF …, priority 2023, dated 2025)

What was measured:
[1] = tested on: STING agonist (MSA-2) stimulation; assay: In vivo anti-inflammatory effect of injection administration on STING agonist (MSA-2) stimulation; design: species or system C57BL6 female mice; conditions: I-77 10mpk, IP
Description: 6-8 week C57BL6 female mice, purchased from Shanghai Jihui Experimental Animal Breeding Co., Ltd. Compound preparation method: 2 mg of I-77 powder was taken, 12 µL of PEG400 was added thereto and ultrasonically dissolved, and then 8 µL of Tween 80 was added and ultrasonically mixed to prepare a 100 mg/mL stock solution.
Experimental grouping: The control group was administered vehicle solvent; The model group was administered MSA-2 (10mpk, dissolved in 40% PEG400); The treatment group (I-77) was administered MSA-2 and I-77 (10mpk, IP). A final concentration of […] of I-77 solution was prepared by dilution with double distilled water, and 200 µL of the solution was taken and injected intraperitoneally into the mice in treatment group; The control group and MSA-2 group were injected intraperitoneally with 200 µL of vehicle solvent diluted 10 times. […] After high-speed centrifugation of blood samples, the plasma was taken and diluted by 2 times, and the levels of CXCL10 and IL6 in the plasma were detected using the Lianke ELISA kit. RNA was extracted from heart and kidney samples, and reversed to cDNA, and inflammation related cytokines (ISG15, ISG56, IL6, and IP10) in tissues were detected using qPCR technology. […]

[2] = tested on: Trex1-D18N autoimmune mouse model; assay: Inflammatory inhibitory effect of oral administration in Trex1-D18N autoimmune mouse model; type: in vivo; conditions: I-77 20mpk, daily for one month, qPCR of Cxcl10/IP10, ISG15, ISG56, IFN-β, IFN-γ, STAT2 in heart, Figure 10
Description: The model mice were purchased from GEMPHARMATECH CO., LTD., and the wild-type C57/BL6 mice were also purchased from GEMPHARMATECH CO., LTD.. Compound preparation method: 2 mg of I-77 powder was taken, 12 µL of PEG400 was added thereto and ultrasonically dissolved, and then 8 µL of Tween 80 was added and ultrasonically mixed to prepare a 100 mg/mL stock solution.
Experimental grouping: Wild type mice control group (Control) was administered vehicle solvent; The model mice group (Model) was administered vehicle solvent; The treatment group (I-77) was administered I-77 (20mpk, PO) to the model mice. The mice in the I-77 group were intragastrically administered 200 µL of I-77 solution at a final concentration of […] daily, which was prepared by dilution with double-distilled water; The same dose of vehicle solvent was administered to the remaining groups continuously for one month. The heart was collected from the experimental endpoint samples. RNA extraction was performed on heart samples, and the RNA was reversed to cDNA. Changes in gene expression of inflammation related cytokines (Cxcl10/IP10, ISG15, ISG56, IFN-β, IFN-γ, and STAT2) in the tissues were detected using qPCR technology. Statistical method: One way ANOVA, *P<0.05, **P<0.01, ***P<0.001, ***P<0.0001.

[3] = tested on: DMXAA induced ISG gene expression in mouse RAW-Lucia cells; assay: Inhibition of DMXAA-induced ISG gene expression in mouse RAW-Lucia cells (QUANTI-Luc); type: cell-based; conditions: STING agonist DMXAA 50 µM, incubated for 24 hours
Procedure, shortened: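 RAW-Lucia cells (4×10^5/mL) stimulated with 50 µM DMXAA and co-incubated 24 h with compound at 10 to 0.004 µM (3-fold steps, 0.1% DMSO). Secreted luciferase in supernatant read with QUANTI-Luc; inhibition calculated against DMXAA-only control, IC50 from four-parameter variable-slope fit constrained 0–100.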

Compound: CC1(C)C(=O)N(Cc2ccsc2)c2cc(C(=O)Nc3c[nH]c4ccccc34)ccc21 [Example I-77, N-(1H-indol-3-yl)-3,3-dimethyl-2-oxo-1-(thien-3-ylmethyl)indolin-6-carboxamide]
- IL6 and IP10 levels in plasma stimulated by MSA-2 ([1]; 3 hours before MSA-2 (10mpk), plasma ELISA 3 hours after MSA-2, Figure 1): significantly inhibit the increase
- inflammatory response of the heart and kidneys induced by MSA-2 stimulation ([1]; qPCR of ISG15, ISG56, IL6, IP10 in tissues, Figures 2, 3): suppress the inflammatory response
- cardiac inflammation related cytokine expression in the Trex1-D18N model [2]: significantly inhibit the upregulation
- IC50 [3]: 2.28 nM
